Test results from the supplement of paper PMC8671470.
± gives the standard deviation of the averaged measurements.

Key:
Conditions in all cases: 72 h
[1] = test system: NOMO-1
Procedure, shortened: (§1)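 Each of fifteen myeloid leukaemia cell lines was seeded in RPMI 1640 at a density titrated to its linear growth range. The cells were incubated for 72 h at 37 °C and 5% CO2 with compounds at five tenfold doses from 1 to 10,000 nM, in duplicate. After ATP luminescence was normalised to vehicle and to a positive control at 10 µM, four-parameter log-logistic curves were fitted. These curves gave the IC50.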

[2] = test system: K-562
Procedure, shortened: as §1

[3] = test system: MV4-11
Procedure, shortened: as §1

[4] = test system: KU-812
Procedure, shortened: as §1

[5] = test system: Mono-Mac-6
Procedure, shortened: as §1

[6] = test system: KG-1; assay: cell viability (% survival relative to DMSO control, bortezomib = 0%); higher = less cytotoxic
Procedure, shortened: (§2)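 After 72 h at 37 °C with 5% CO2, cell viability in 384-well plates was measured by CellTiter-Glo luminescence. The plates held compounds pre-printed at 1, 10, 100, 1000 or 10000 nM in duplicate, and cells from 10 AML and 5 CML lines seeded at densities titrated to linear growth. Percent survival is the duplicate mean, normalised to vehicle as 100% and a 10 µM positive control as 0%.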

[7] = test system: NOMO-1; assay: as above
Procedure, shortened: as §2

[8] = test system: BV-173; assay: as above
Procedure, shortened: as §2

[9] = test system: MOLM-13; assay: as above
Procedure, shortened: as §2

[10] = test system: K-562; assay: as above
Procedure, shortened: as §2

[11] = test system: KCL-22; assay: as above
Procedure, shortened: as §2

[12] = test system: ML-2; assay: as above
Procedure, shortened: as §2

[13] = test system: LAMA-84; assay: as above
Procedure, shortened: as §2

[14] = test system: MV4-11; assay: as above
Procedure, shortened: as §2

[15] = test system: SHI-1; assay: as above
Procedure, shortened: as §2

[16] = test system: KU-812; assay: as above
Procedure, shortened: as §2

[17] = test system: Mono-Mac-6; assay: as above
Procedure, shortened: as §2

[18] = test system: HL-60; assay: as above
Procedure, shortened: as §2

[19] = test system: HEL; assay: as above
Procedure, shortened: as §2

[20] = test system: THP-1; assay: as above
Procedure, shortened: as §2

[21] = test system: HL-60; assay: cell viability (% survival relative to DMSO control); higher = less cytotoxic
Procedure, shortened: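 In 384-well plates, the full library was rescreened in duplicate on HL-60 cells in RPMI 1640 with 10% FBS, at 1–10,000 nM in five tenfold concentrations, for 72 h at 37 °C, 5% CO2. Each run also held DMSO or 100 nM of one of three metabolic inhibitors. Viability was measured by CellTiter-Glo and normalised to DMSO wells and to wells with proteasome inhibitor, present at 10 μM. Any area under the curve comes from four-parameter log-logistic fitting with drc and PharmacoGx.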

CN(CCOc1ccc(Cc2sc(O)nc2O)cc1)c1ccccn1 [Rosiglitazone]
Conditions	IC50 (cell viability) [µM]
[1]	> 10
[2]	> 10
[3]	> 10
[4]	> 10
[5]	0.0852

cell viability [%]
Conditions	1 nM	10 nM	100 nM	1000 nM	10000 nM
[6]	91.4	110	94.3	101	91.2
[7]	109	107	97.8	105	102
[8]	96.7	101	81	97.7	101
[9]	107	115	118	130	122
[10]	96.6	109	98.5	98.7	85.4
[11]	96.4	113	110	94.2	102
[12]	106	108	95.6	120	115
[13]	99.3	106	100	95.6	97.4
[14]	107	105	105	95	93.5
[15]	102	123	111	116	103
[16]	98.9	111	92.5	95.4	90.3
[17]	95.9	92.6	54.5	25.2	24.8
[18]	97.8	111	107	127	168
[19]	110	110	113	110	91.9
[20]	101	101	88.6	90.6	93.5

cell viability [%], [21]
Conditions	0.001 µM	0.01 µM	0.1 µM	1 µM	10 µM
co-treatment: AZD3965 100 nM	104.4 ± 0.49	105 ± 6.8	100 ± 2.6	105 ± 4.5	102 ± 9.3
co-treatment: DMSO vehicle	102.4 ± 1	102 ± 1.9	102 ± 1.4	102.5 ± 1	99.9 ± 4.4
co-treatment: GSK2194069 100 nM	97.7 ± 2.8	105 ± 4	98.5 ± 1.7	105 ± 8.2	92.5 ± 4.1
co-treatment: pictilisib 100 nM	98.9 ± 12	102 ± 7.2	96.3 ± 18	98.3 ± 4.8	89.5 ± 6.1
